Experimental data: patent US20050197364A1, “Amide compounds as ion channel ligands and uses thereof” (priority 2003, published 2005)

What was measured:
VR1 receptor [1] = assay: High throughput calcium imaging assay (Fura2, Flex Station) of VR1 antagonists, pH 5.1 stimulus; assay type: cell-based; conditions: 1 uM compound; inhibition of calcium ion influx induced by capsaicin stimulation
Experimental: Therefore the functional activity of compounds at the VR1 receptor may be determined by measuring changes in intracellular calcium levels in 293 cells expressing capsaicin-insensitive VR1 receptor variants. A dual wavelength ratiometric dye, Fura2, was used as an indicator of relative levels of calcium ions in a 96 well format using a bench top scanning fluorometer with integrated fluidics and temperature control (Flex Station, Molecular Devices).
293 cells were grown on PDL coated 96-well black-walled plates, in the presence of a DMEM medium containing 5% Penstrep, 5% Glutamax, 200 ug/mL Hygromycin, 5 μg/mL Blasticide and 10% heat inactivated FBS. Prior to assay, the cells were loaded with 5 μg/mL Fura2 in normal saline solution at 37° C. for 40 minutes. Cells were then washed with normal saline to remove the dye.
The assay consists of two stages; a pre-treatment phase followed by a treatment phase.
50 μl of a compound solution was added to the cells (Pre-treatment). Immediately following, 50 μl of the test compound in a saline solution at pH 5.1 was added. Fura2 was excited at 340 and 380 nM to indicate relative calcium concentration. Changes in wavelength measurements were made throughout the course of the experiment in 4 second intervals over a period of 3 minutes. Responses were measured as peak fluorescence ratio after test compound addition minus baseline fluorescence ratio prior to pre-treatment and were calculated using SoftMaxPro softwareData were expressed as percentage inhibition calculated using Excel as follows: [formula]

VR1 receptor [2] = target: T1, VR1 receptor (Rattus norvegicus, UniProt O35433); assay: Whole-cell patch clamp electrophysiology, capsaicin induced current in DRG neurons; assay type: cell-based
T1 construct: Dorsal root ganglion (DRG) neurons were recovered from either neonatal or adult rats; endogenous in cells; host or cells: primary rat dorsal root ganglion neurons
Experimental: Dorsal root ganglion (DRG) neurons were recovered from either neonatal or adult rats and plated onto poly-D-lysine coated glass coverslips. The plated neurons were transferred into a chamber to allow drug solutions to be added to the cells using a computer-controlled solenoid-valve based perfusion system. The cells were imaged using standard DIC optics. Cells were patched using finely-pulled glass electrodes. Voltage-clamp electrophysiology experiments were carried out using an Axon Instruments Multiclamp amplified controlled by pCLAMP8 software.
The cells were placed into a whole-cell voltage clamp and help at a voltage of −80 mV while monitoring the membrane current in gap-free recording mode. 500 nM capsaicin was added for 30 seconds as a control. Test compounds at various concentrations at ranging from (10-1000 nM) were added to the cells for 1 minute prior to a 30 second capsaicin application. Differences between control experiments and drug positive capsaicin experiments were used to determine the efficacy of each test compound. All compounds that inhibited capsaicin induced current greater than 50% were considered positives.

T1 sequence (O35433 whole entry): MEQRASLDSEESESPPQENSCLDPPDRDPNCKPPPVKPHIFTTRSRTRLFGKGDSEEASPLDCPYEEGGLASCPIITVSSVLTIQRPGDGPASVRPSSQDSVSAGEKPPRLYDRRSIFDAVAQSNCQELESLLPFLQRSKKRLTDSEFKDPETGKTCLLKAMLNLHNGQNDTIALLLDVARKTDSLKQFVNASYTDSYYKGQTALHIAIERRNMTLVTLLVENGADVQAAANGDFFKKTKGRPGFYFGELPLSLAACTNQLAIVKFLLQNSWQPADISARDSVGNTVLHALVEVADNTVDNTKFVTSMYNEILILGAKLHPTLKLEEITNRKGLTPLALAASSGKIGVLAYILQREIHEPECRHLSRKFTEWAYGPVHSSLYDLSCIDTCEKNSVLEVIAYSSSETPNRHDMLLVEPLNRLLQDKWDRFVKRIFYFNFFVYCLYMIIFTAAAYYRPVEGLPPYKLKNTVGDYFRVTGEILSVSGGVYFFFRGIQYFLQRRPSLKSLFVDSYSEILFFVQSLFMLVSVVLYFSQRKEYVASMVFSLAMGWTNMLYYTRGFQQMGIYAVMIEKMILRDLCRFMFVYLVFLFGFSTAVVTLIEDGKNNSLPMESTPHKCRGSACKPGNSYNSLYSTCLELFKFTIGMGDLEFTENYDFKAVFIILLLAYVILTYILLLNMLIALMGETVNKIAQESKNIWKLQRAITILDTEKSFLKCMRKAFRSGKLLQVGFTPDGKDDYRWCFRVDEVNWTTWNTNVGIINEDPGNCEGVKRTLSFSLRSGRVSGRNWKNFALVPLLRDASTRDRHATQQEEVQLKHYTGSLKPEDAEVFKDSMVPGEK

| dose response of inhibiting a capsaicin induced calcium ion influx (FIG. 4) (VR1 receptor [2]; 20 nM, 40 nM, 100 nM and 200 nM) | inhibition at 0.2 µM (VR1 receptor [2]; DRG neuron, 200 nM compound, treatment time 25 seconds, 500 nM capsaicin, rat DRG neurons, -80 mV) | Structure (SMILES) | % Inhibition @ 1 uM (VR1 receptor [1]) |
| --- | --- | --- | --- |
| increasing effectiveness | 100% | CC(C)(C)c1ccc(NC(=O)c2ccc(-c3ncccc3Cl)cc2)cc1 [Compound 24] | + + + + (compound exhibited 75% or greater inhibition of calcium ion influx induced by capsaicin stimulation) |
| – | – | O=C(Nc1ccc(OC(F)(F)F)cc1)c1ccc(-c2ncccc2Cl)cn1 [Compound 343] | + (“+” compound exhibited 0-25% inhibition of calcium ion influx induced by capsaicin stimulation.) |
| – | – | O=C(Nc1cccc(OC(F)(F)F)c1)c1ccc(-c2ncccc2Cl)cn1 [Compound 344] | + + (“+ +” compound exhibited 25-50% inhibition of calcium ion influx induced by capsaicin stimulation.) |
| – | – | CC(C)Oc1cccc(NC(=O)c2ccc(-c3ncccc3Cl)cn2)c1 [Compound 345] | + (“+” compound exhibited 0-25% inhibition of calcium ion influx induced by capsaicin stimulation.) |
| – | – | O=C(Nc1ccc(F)c(F)c1)c1ccc(-c2ncccc2Cl)cn1 [Compound 346] | + + + + (“+ + + +” compound exhibited 75% or greater inhibition of calcium ion influx induced by capsaicin stimulation.) |
| – | – | CCOc1cccc(NC(=O)c2ccc(-c3ncccc3Cl)cn2)c1 [Compound 347] | + + + + (“+ + + +” compound exhibited 75% or greater inhibition of calcium ion influx induced by capsaicin stimulation.) |
